Data published in patent publication US7696186B2, “7,9-substituted tetracycline compounds” (Paratek Pharmaceuticals, Inc., priority 2001, dated 2010).

Columns and labels:
Assay in all cases: In Vitro Minimum Inhibitory Concentration (MIC) Assay
Assay type in all cases: cell-based
Set-up in all cases: key: compounds which were good inhibitors of growth of a particular bacteria are indicated with *; compounds which were very good inhibitors of a particular bacteria are indicated with **; compounds with were particularly good inhibitors of a particular bacteria are indicated with ***
Details in all cases: CAMHB, 35° C., approximately 18 hr
[1] = system: E. coli
Description: (§1) In Vitro Minimum Inhibitory Concentration (MIC) Assay
(§2) The following assay is used to determine the efficacy of minocycline compounds against common bacteria. 2 mg of each compound is dissolved in 100 μl of DMSO. The solution is then added to cation-adjusted Mueller Hinton broth (CAMHB), which results in a final compound concentration of 200 μg per ml. The minocycline compound solutions are diluted to 50 μL volumes, with a test compound concentration of 0.098 μg/ml. Optical density (OD) determinations are made from fresh log-phase broth cultures of the test strains. Dilutions are made to achieve a final cell density of 1×10^6 CFU/ml. At OD=1, cell densities for different genera should be approximately:
(§3) 50 μl of the cell suspensions are added to each well of microtiter plates. The final cell density should be approximately 5×10^5 CFU/ml. These plates are incubated at 35° C. in an ambient air incubator for approximately 18 hr. The plates are read with a microplate reader and are visually inspected when necessary. The MIC is defined as the lowest concentration of the minocycline compound that inhibits growth. Compounds of the invention indicate good inhibition of growth.
(§4) In Table 2, compounds which were good inhibitors of growth of a particular bacteria are indicated with *, compounds which were very good inhibitors of a particular bacteria are indicated with **, and compounds with were particularly good inhibitors of a particular bacteria are indicated with ***.

[2] = system: E. hirae
Description: as §1, §2, §3, §4

[3] = system: S. aureus
Description: as §1, §2, §3, §4

Row | E. coli (inhibition of growth, MIC assay) [1] | E. hirae (inhibition of growth, MIC assay) [2] | S. aureus (inhibition of growth, MIC assay) [3] | SMILES
1 | * | *** | ** | CC(=O)NCc1cc(-c2ccccc2)c2c(c1O)C(=O)C1=C(O)[C@]3(O)C(=O)C(C(N)=O)=C(O)[C@@H](N(C)C)[C@@H]3C[C@@H]1C2 [HX]
2 | * | *** | ** | CN(C)[C@@H]1C(O)=C(C(N)=O)C(=O)[C@@]2(O)C(O)=C3C(=O)c4c(O)c(C(C)(C)C)cc(-c5cccc([N+](=O)[O-])c5)c4C[C@H]3C[C@@H]12 [HP]
3 | ** | ** | ** | CN(C)[C@@H]1C(O)=C(C(N)=O)C(=O)[C@@]2(O)C(O)=C3C(=O)c4c(O)c(CN)cc(-c5ccc(F)cc5)c4C[C@H]3C[C@@H]12 [HM]
4 | * | ** | ** | CC(=O)NCc1cc(-c2ccc(F)cc2)c2c(c1O)C(=O)C1=C(O)[C@]3(O)C(=O)C(C(N)=O)=C(O)[C@@H](N(C)C)[C@@H]3C[C@@H]1C2 [HT]
5 | * | ** | *** | CN(C)[C@@H]1C(O)=C(C(N)=O)C(=O)[C@@]2(O)C(O)=C3C(=O)c4c(O)c(-c5ccc6c(c5)OCO6)cc(-c5ccc6c(c5)OCO6)c4C[C@H]3C[C@@H]12 [Compound HZ, 7,9-Bis(3,4-Methylenedioxyphenyl)-Sancycline]
6 | * | ** | ** | CN(C)[C@@H]1C(O)=C(C(N)=O)C(=O)[C@@]2(O)C(O)=C3C(=O)c4c(O)c(CN)cc(-c5cccc([N+](=O)[O-])c5)c4C[C@H]3C[C@@H]12 [HJ]
7 | * | ** | ** | CN(C)[C@@H]1C(O)=C(C(N)=O)C(=O)[C@@]2(O)C(O)=C3C(=O)c4c(O)c(CN)cc(-c5ccccc5)c4C[C@H]3C[C@@H]12 [HE]
8 | * | ** | ** | CN(C)[C@@H]1C(O)=C(C(N)=O)C(=O)[C@@]2(O)C(O)=C3C(=O)c4c(O)c(CN5C(=O)c6ccccc6C5=O)cc(-c5cccc([N+](=O)[O-])c5)c4C[C@H]3C[C@@H]12 [HK]
9 | * | ** | ** | CN(C)[C@@H]1C(O)=C(C(N)=O)C(=O)[C@@]2(O)C(O)=C3C(=O)c4c(O)c(CNC(=O)C5CCCO5)cc(-c5ccc(F)cc5)c4C[C@H]3C[C@@H]12 (stereo partly drawn) [HR]

More lines, now with the values behind:

Row | SMILES | E. coli (inhibition of growth, MIC assay) [1] | E. hirae (inhibition of growth, MIC assay) [2] | S. aureus (inhibition of growth, MIC assay) [3]
10 | CCCCCCc1cc(CN)c(O)c2c1C[C@H]1C[C@H]3[C@H](N(C)C)C(O)=C(C(N)=O)C(=O)[C@@]3(O)C(O)=C1C2=O [HS] | *** | *** | **
11 | CCCCc1cc(CN)c(O)c2c1C[C@H]1C[C@H]3[C@H](N(C)C)C(O)=C(C(N)=O)C(=O)[C@@]3(O)C(O)=C1C2=O [HQ] | ** | ** | **
12 | CN(C)[C@@H]1C(O)=C(C(N)=O)C(=O)[C@@]2(O)C(O)=C3C(=O)c4c(O)c(CN5C(=O)c6ccccc6C5=O)cc(CN5C(=O)c6ccccc6C5=O)c4C[C@H]3C[C@@H]12 [HB] | * | ** | **
13 | COc1ccc(C#Cc2cc(C#Cc3ccc(OC)cc3)c3c(c2O)C(=O)C2=C(O)[C@]4(O)C(=O)C(C(N)=O)=C(O)[C@@H](N(C)C)[C@@H]4C[C@@H]2C3)cc1 [HC] | * | * | *
14 | CCc1cc(CNC(=O)c2cccnc2)c(O)c2c1C[C@H]1C[C@H]3[C@H](N(C)C)C(O)=C(C(N)=O)C(=O)[C@@]3(O)C(O)=C1C2=O [HF] | * | ** | *
15 | CN(C)[C@@H]1C(O)=C(C(N)=O)C(=O)[C@@]2(O)C(O)=C3C(=O)c4c(O)c(CNC(=O)c5cccnc5)cc(CCC5CCCCC5)c4C[C@H]3C[C@@H]12 [HI] | * | ** | **
16 | CCc1cc(CC)c2c(c1O)C(=O)C1=C(O)[C@]3(O)C(=O)C(C(N)=O)=C(O)[C@@H](N(C)C)[C@@H]3C[C@@H]1C2 [HV] | ** | *** | ***
17 | CN(C)[C@@H]1C(O)=C(C(N)=O)C(=O)[C@@]2(O)C(O)=C3C(=O)c4c(O)c(CNC(=O)CCl)cc(-c5ccccc5)c4C[C@H]3C[C@@H]12 [HN] | * | ** | ***
18 | CCCc1cc(CN)c(O)c2c1C[C@H]1C[C@H]3[C@H](N(C)C)C(O)=C(C(N)=O)C(=O)[C@@]3(O)C(O)=C1C2=O [HL] | ** | ** | **
19 | CCc1cc(C#Cc2ccc(OC)cc2)c(O)c2c1C[C@H]1C[C@H]3[C@H](N(C)C)C(O)=C(C(N)=O)C(=O)[C@@]3(O)C(O)=C1C2=O [HW] | * | ** | **
20 | CCc1cc(C#CC2=CCCCC2)c(O)c2c1C[C@H]1C[C@H]3[C@H](N(C)C)C(O)=C(C(N)=O)C(=O)[C@@]3(O)C(O)=C1C2=O [Compound HO, 7-Ethyl-9-Cyclohexenylethynyl-Sancycline] | * | *** | ***
21 | CCc1cc(CN)c(O)c2c1C[C@H]1C[C@H]3[C@H](N(C)C)C(O)=C(C(N)=O)C(=O)[C@@]3(O)C(O)=C1C2=O [HG] | * | * | **
22 | CCCCCc1cc(CN2C(=O)c3ccccc3C2=O)c(O)c2c1C[C@H]1C[C@H]3[C@H](N(C)C)C(O)=C(C(N)=O)C(=O)[C@@]3(O)C(O)=C1C2=O [HU] | * | *** | **
23 | CC#Cc1cc(C#CC)c2c(c1O)C(=O)C1=C(O)[C@]3(O)C(=O)C(C(N)=O)=C(O)[C@@H](N(C)C)[C@@H]3C[C@@H]1C2 [IA] | * | * | *
